Test results: PubChem BioAssay (NCI)
Where “and” joins values, the source holds several entries; their conditions need not be identical. Identical values can stand only once.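 1) Cells in 96-well plates. 2) Compound, 48 h, 5 concentrations. 3) Linear interpolation between surrounding doses. 4) Unreached endpoint = highest concentration. GI50 = concentration required for 50% inhibition of growth. At the TGI there is no net growth.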

What was measured:
Test in all cases: growth of human tumour cells (NCI), 48 h
[1] = system: EKVX NSCLC
[2] = system: MOLT-4 leukemia
[3] = system: UACC-257 melanoma
[4] = system: U251 CNS
[5] = system: SNB-19 CNS
[6] = system: SK-MEL-2 melanoma
[7] = system: COLO 205 colon
[8] = system: LOX IMVI melanoma
[9] = system: OVCAR-5 ovarian
[10] = system: T-47D breast

| SMILES | GI50 [1] [µM] | TGI [1] [µM] | GI50 [2] [µM] | TGI [2] | GI50 [3] [µM] | TGI [3] | GI50 [4] [µM] | TGI [4] | GI50 [5] [µM] | TGI [5] | GI50 [6] [µM] | TGI [6] | GI50 [7] [µM] | TGI [7] | GI50 [8] [µM] | TGI [8] | GI50 [9] [µM] | TGI [9] | GI50 [10] [µM] | TGI [10] [µM] |
| --- | --- | --- | --- | --- | --- | --- | --- | --- | --- | --- | --- | --- | --- | --- | --- | --- | --- | --- | --- | --- |
| CC(C)C[C@@H](N)[C@@H](O)C(=O)N[C@H](C(=O)N[C@H](C(=O)N[C@@H](CC(=O)O)C(=O)O)C(C)C)C(C)C | > 20 | > 20 | > 20 | > 20 µM | > 20 | > 20 µM | > 20 | > 20 µM | > 20 | > 20 µM | > 20 | > 20 µM | > 20 | > 20 µM | > 20 | > 20 µM | > 20 | > 20 µM | > 20 | > 20 |
| C[C@@H]1C[C@@H]([C@H](O)CC2CC(=O)NC(=O)C2)C(=O)[C@@H](C)C1 | 0.341 | 4.45 | 0.139 | 2.06 µM and 0.518 µM | 0.248 | 1.65 µM and 1.03 µM | 0.237 | 2.67 µM and 12.6 µM | 0.282 | 15.8 µM and > 94.6 µM | 0.164 | 1.07 µM and 3.27 µM | 0.224 | 2 µM and 1.47 µM | 0.258 | 3.53 µM and 0.816 µM | 0.317 | 14.6 µM and 4.02 µM | 0.231 | 5.07 |
| [N-]=[N+]=CC(=O)CCC(N)C(=O)O (stereo not drawn) | 3.47 | > 141 | 0.468 | – | 78.5 | > 250 µM | 6.59 | > 250 µM | 10.1 | > 250 µM | 24.6 | 245 µM | 0.812 | > 128 µM | 0.793 | 167 µM | – | > 186 µM | 16.2 | > 250 |
| Cc1n[nH]c2ccccc2c1=O | – | > 100 | – | > 100 µM | – | > 100 µM | – | > 100 µM | – | > 100 µM | – | > 100 µM | – | > 100 µM | – | > 100 µM | – | > 100 µM | – | > 100 |
| Nc1cc2c3c(cccc3c1)C(=O)N(CCN1CCCC1)C2=O | 3.69 | 54.2 | 1.74 | > 46.4 µM | 3.35 | 24.5 µM | 3.4 | > 100 µM | 3.33 | 29 µM | 4.96 | 19.2 µM | 1.68 | 10.3 µM | 2.25 | 13.4 µM | 4.73 | > 57.6 µM | 1.93 | 9.36 |
| NC(N)=N/N=C\c1ccc(OCc2ccccc2)cc1 | 7.37 | 24.2 | 3.36 | 9.36 µM | 1.61 | 3.31 µM | 1.62 | 3.17 µM | 3.08 | 15.4 µM | 1.74 | 3.38 µM | 1.74 | 3.44 µM | 1.53 | 2.96 µM | 2.95 | 15.5 µM | 1.45 | 4.22 |
| COc1ccc2c(c1)C(=O)c1c-2c(OCCCN(C)C)nc2cc(Br)ccc12 | 2.78 | 13.5 | 3.09 | 18.7 µM | 16.4 | 32.9 µM | 2.1 | 4.22 µM | 3.08 | 11.8 µM | 19.1 | 36.3 µM | 13.8 | > 100 µM | 11.3 | 23.7 µM | 1.71 | 3.59 µM | 10.8 | 32.2 |
| COc1ccc(-c2ccc(OC)c(OC)c2OC)cc1 | 4.1 | > 100 | 2.39 | > 100 µM | > 73.8 | > 100 µM | 2.01 | > 100 µM | 4.83 | > 100 µM | 3.8 | > 100 µM | 1.74 | 6.83 µM | 2.82 | > 100 µM | 8.66 | > 100 µM | 5.87 | > 100 |
| C[C@@]1(F)[C@H](O)[C@@H](CO)O[C@H]1n1ccc(=O)[nH]c1=O | > 100 | > 100 | > 100 | > 100 µM | > 100 | > 100 µM | > 100 | > 100 µM | > 100 | > 100 µM | > 100 | > 100 µM | > 100 | > 100 µM | > 100 | > 100 µM | > 100 | > 100 µM | > 100 | > 100 |
| O=C(Nc1n[nH]c2cc(-c3cc(F)ccc3F)ccc12)C1CC1 | > 22.3 | > 25 | 14.3 | > 25 µM | > 25 | > 25 µM | 15.3 | > 25 µM | > 25 | > 25 µM | 12.2 | > 25 µM | 13.1 | > 25 µM | 14.4 | > 25 µM | > 22.3 | > 25 µM | 11.8 | > 25 |
| CC1CCC2C(C)C(=O)OC2C2(C)C(=O)C=CC12 (stereo not drawn) | – | > 10 | – | > 10 µM | – | > 10 µM | – | > 10 µM | – | > 10 µM | – | > 10 µM | – | > 10 µM | – | > 10 µM | – | > 10 µM | – | > 10 |
| COc1cc(C2CC(c3ccc(Nc4nc(NCCO)nc(NCCO)n4)cc3)=NN2c2cc(Cl)cc(Cl)c2)cc(OC)c1OC (stereo not drawn) | 2.03 | 6.17 | 1 | 4.12 µM | 1.86 | 3.87 µM | 1.25 | 2.81 µM | 1.72 | 4.12 µM | 15.5 | 28.9 µM | 2.7 | 9.29 µM | 1.6 | 3.1 µM | 2.15 | 7.56 µM | 1.18 | 12.1 |
| Clc1ccccc1C(Nc1cnccn1)Nc1cnccn1 | – | > 100 | – | > 100 µM | – | > 100 µM | – | > 100 µM | – | > 100 µM | – | > 100 µM | – | > 100 µM | – | > 100 µM | – | > 100 µM | – | > 100 |
| CCCC(=O)O[C@]1(C)CC[C@@H]2[C@H]3[C@@H]1[C@@H]1C[C@@](C)(O)[C@H](OC)CC[C@](C)(OC(=O)[C@@H]2C)[C@H]3O1 | 47.3 | > 100 | 23.5 | 52 µM | 24.5 | 60.7 µM | 56.9 | > 100 µM | 32.1 | > 100 µM | 65.7 | > 100 µM | 33.7 | > 100 µM | 66.9 | > 100 µM | 58.9 | > 100 µM | 21.6 | 44.5 |
| O=C1C(=O)c2c(nc3ccc(C(F)(F)F)cn23)-c2ccccc21 | 0.178 | 0.396 | 0.237 | 0.602 µM | 0.193 | 0.363 µM | 0.185 | 0.377 µM | 0.303 | 0.763 µM | 0.209 | 0.434 µM | 1.63 | 3.52 µM | 0.173 | 0.354 µM | 0.414 | 0.998 µM | 0.214 | 0.57 |
| Cn1c(I)c(C#C[Si](C)(C)C)c(=O)n(C(=O)c2ccccc2)c1=O | 6.06 | 21.2 | 1.25 | > 21.9 µM | 11.6 | 24.6 µM | 12.5 | 25 µM | 15.5 | 31.8 µM | 12.8 | 26 µM | 1.55 | 3.2 µM | 2.79 | 8.26 µM | 14.3 | 28.5 µM | 2.03 | 5.91 |
| CN1CCN(C2=NC(=O)/C(=C\c3ccc(N(C)C)cc3)S2)CC1 | > 100 | > 100 | 42.2 | > 100 µM | > 100 | > 100 µM | > 100 | > 100 µM | > 100 | > 100 µM | > 100 | > 100 µM | > 100 | > 100 µM | 75.1 | > 100 µM | > 100 | > 100 µM | 36.7 | > 100 |
| CCCCNC(c1ccc(Cl)cc1)C(O)c1ccc(Cl)cc1 (stereo not drawn) | 2.76 | 14.7 | 1.67 | 6.67 µM | 2.25 | 5.03 µM | 1.75 | 3.65 µM | 2.09 | 5.74 µM | 1.81 | 3.68 µM | 1.56 | 3.25 µM | 1.39 | 2.7 µM | 2.94 | 15.7 µM | 1.67 | 4.52 |
| Cc1ccc(/C(=N/Nc2ccc([N+](=O)[O-])cc2)Sc2cc(Cl)c(C)cc2S(N)(=O)=O)cc1 | 3.14 | 9.12 | 3.35 | 12.3 µM | 6.45 | 18.8 µM | 4.34 | 16.7 µM | 2.5 | > 20.5 µM | 4.9 | 20 µM | 2.98 | > 23.2 µM | 1.49 | 3.45 µM | 2.45 | 6.16 µM | 3.14 | > 23.2 |
| COc1c2ccoc2nc2c(OC)c(OCC(O)C(C)(C)O)ccc12 (stereo not drawn) | – | > 100 | – | > 100 µM | – | > 100 µM | – | > 100 µM | – | > 100 µM | – | > 100 µM | – | > 100 µM | – | > 100 µM | – | > 100 µM | – | > 100 |
| Cn1c(COC(=O)NCCc2ccccn2)nc2c(N3CCOCC3)nc(Cl)nc21 | 1.7 | 3.7 | 2.41 | 8.09 µM | 1.53 | 3.28 µM | 1.63 | 3.34 µM | 3.97 | 16.1 µM | 1.88 | 3.81 µM | 1.72 | 3.61 µM | 0.899 | 2.39 µM | 1.73 | 3.68 µM | 1.65 | 3.67 |
| CC(C)Cc1cnc(CC(C)C)c(=O)[nH]1 | – | > 100 | – | > 100 µM | – | > 100 µM | – | > 100 µM | – | > 100 µM | – | > 100 µM | – | > 100 µM | – | > 100 µM | – | > 100 µM | – | > 100 |
| Cn1c(COC(=O)NCCn2ccnc2)nc2c(N3CCOCC3)nc(-c3ccccc3)nc21 | 1.26 | 2.65 | 0.441 | 2.41 µM | 1.28 | 2.86 µM | 1.35 | 2.87 µM | 1.38 | 2.69 µM | 1.68 | 3.3 µM | 1.15 | 2.97 µM | 0.152 | 0.314 µM | 1.39 | 3.01 µM | 1.43 | 4.17 |
| CN(C)CCC(=O)Nc1ccc(-n2cc(-c3cccc(NC(=S)Nc4cccc(-c5cn(-c6ccc(NC(=O)CCN(C)C)cc6)nn5)c4)c3)nn2)cc1 | 37.2 | > 100 | 20.7 | 84.6 µM | 26.2 | 67.4 µM | 21.4 | 80.8 µM | 49.5 | > 100 µM | 39.5 | > 100 µM | 14.2 | 45.7 µM | 7.7 | > 100 µM | 20.6 | 52.8 µM | 34.1 | > 100 |
| CC(C)(C)C[C@H]1N[C@@H](C(=O)NC2CCC(O)CC2)[C@H](c2cccc(Cl)c2F)[C@@]12C(=O)Nc1cc(Cl)ccc12 (stereo partly drawn) | 3.15 | 14.2 | 0.314 | 1.81 µM | 1.16 | 13.7 µM | 7.86 | 21.9 µM | 5.93 | 21.3 µM | 4.93 | 19.7 µM | 3.67 | 16 µM | 0.577 | 18.1 µM | 3.88 | 15.2 µM | 5.98 | 22.8 |
| O=c1c(-c2ccc3c(c2)OCO3)coc2c3c(ccc12)OCO3 | – | > 100 | – | > 100 µM | – | > 100 µM | – | > 100 µM | – | 44.9 µM | – | > 100 µM | – | > 100 µM | – | > 100 µM | – | > 100 µM | – | > 100 |
